Like-named read-outs stand apart in the source and are kept apart here.
Assays:
[1] = Pharmacokinetic investigation in mice (PO and IP); type: in vivo, mice of BALB/c line; conditions: BALB/c, mouse, plasma; for half-life: read-out: T½
Protocol: Pharmacokinetic investigations were carried out on mice of BALB/c line. All animals were divided into three groups in a random manner: two experimental groups were used for pharmacokinetic analyses at peroral (PO) and intraperitoneal (IP) ways of substance introduction in various doses, and the control group for getting intact blood plasma.
Blood samples were taken by decapitation of animals before introduction of medicament (control samples), and by decapitation in 5, 15, 30, 60, 120 and 240 minutes after introduction of medicament. Three mice were used for each time interval point.
Analysis of samples comprising compounds of the general formulas I-VIII was carried out by Chromato-Mass-Spectrometry method. The data were analysed by means of software package WinNonLin (Pharsight, CIIIA).
Oral bioavailability % F of compounds of the general formulas I-VIII was calculated on the basis of experimental results according to the following equation: % F=[AUC0→t,(PO)/AUC0→t,(IP)]×100%.

[2] = biological target: T1, Smo receptors (Homo sapiens, UniProt Q99835); experiment: Displacement of bodipy-cyclopamine from Smo receptors in Smo-HEK cells; type: binding; conditions: half-maximal displacement of bodipy-cyclopamine
T1 construct: expressed in transfected cells; host or cells: HEK cells (Smo-HEK)
T1 sequence (Q99835 28-787): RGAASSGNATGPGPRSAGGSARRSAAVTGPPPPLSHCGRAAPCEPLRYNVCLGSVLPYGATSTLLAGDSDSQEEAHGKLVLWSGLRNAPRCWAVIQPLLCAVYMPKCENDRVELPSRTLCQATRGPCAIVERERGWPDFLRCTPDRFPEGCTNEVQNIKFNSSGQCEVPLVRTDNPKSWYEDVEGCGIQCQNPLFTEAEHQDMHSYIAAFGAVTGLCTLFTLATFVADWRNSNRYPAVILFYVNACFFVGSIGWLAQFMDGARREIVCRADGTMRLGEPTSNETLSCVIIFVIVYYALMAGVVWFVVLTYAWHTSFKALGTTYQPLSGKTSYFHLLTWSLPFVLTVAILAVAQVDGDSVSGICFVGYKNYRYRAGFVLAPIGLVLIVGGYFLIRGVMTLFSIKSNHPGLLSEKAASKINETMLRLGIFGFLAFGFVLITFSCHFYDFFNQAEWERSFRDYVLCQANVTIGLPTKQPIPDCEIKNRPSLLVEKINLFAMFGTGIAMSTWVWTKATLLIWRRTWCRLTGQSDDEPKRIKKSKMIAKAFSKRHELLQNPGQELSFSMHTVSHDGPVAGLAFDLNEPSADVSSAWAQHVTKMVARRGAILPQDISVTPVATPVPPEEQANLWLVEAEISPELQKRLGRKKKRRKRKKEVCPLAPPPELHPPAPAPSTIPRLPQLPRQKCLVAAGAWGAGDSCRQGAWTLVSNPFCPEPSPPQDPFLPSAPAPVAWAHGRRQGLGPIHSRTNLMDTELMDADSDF
Protocol: Binding parameters to Smo receptors for some of compounds of the general formulas I-VIII are presented in table 11 as the values of half-maximal displacement of cyclopamine labelled with fluorescent dye (bodipy-cyclopamine). The tests were carried out for Smo-HEK cells, comprising artificially expressed protein Smo.

[3] = Maximum tolerated dose, intraperitoneal once daily for 5 days; conditions: mouse, in vivo, ip, male SHK mice
Protocol: Maximum tolerated dose of compounds was determined in tests on male mice of SHK line by intraperitoneal once daily introduction of the compounds in doses from 30 to 300 mg/kg during 5 days. 8 Mice were used in each group. Weight of mice and also animals' mortality were registered. […] According to the classification of chemical compounds toxicity the investigated compounds may be referred to low-toxic substances.

[4] = test system: human's pancreatic carcinoma Panc1; experiment: Antitumour activity in Panc1 xenograft mice model; type: in vivo, mice Balb-c/nude
Protocol: Example of antitumour activity of compound III-1029 towards human's pancreatic carcinoma model Panc1, implanted to immunodeficient transgenic (naked) mice Balb-c/nude, is presented in FIG. 3. Mice of 8 weeks age which were implanted with pancreatic carcinoma by injection of 4×10^6 tumour cells were used in the experiments. Introduction of tested compound (peroral 50 mg/kg, daily during 14 days) was started in 7 days after transplantation of tumour (an average size of tumour was 30-60 mm^3). As a result of the tests it was shown that under the said way of introduction compound III-1029 suppresses tumour growth on 67% in comparison with the control group (mice with implanted tumour not treated with compound III-1029).
Example of antitumour activity of compounds III-1017 and III-1011 towards human's pancreatic carcinoma Panc1, implanted to immunodeficient transgenic (naked) mice Balb-c/nude, is presented in FIG. 4. Mice of 8 weeks age which were implanted with pancreatic carcinoma by injection of 4×10^7 tumour cells were used in the experiments. Introduction of tested compound (intraperitoneally […], daily during 21 days) was started in 8 days after transplantation of tumour (an average size of tumour is 60-140 mm^3). As a result of the tests it was shown that under the said way of introduction compounds III-1017 and III-1011 suppress tumour growth on 27 and 46% in comparison with the control group (mice with implanted tumour not treated with the tested compounds).

[5] = Pharmacokinetic investigation in mice (PO and IP); type: in vivo, mice of BALB/c line; conditions: BALB/c, mouse, plasma, read-out: % F (PO/IV)
[6] = test system: Hh-signalling cascade; experiment: Inhibition of SHh-induced alkaline phosphatase in C3H10T1/2 cells (Hh-signalling cascade inhibition); type: cell-based; conditions: Mus musculus, C3H 10T1/2, half maximal inhibition of SHh (0.3 μg/ml) stimulation of cell alkaline phosphatase
Outline: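 C3H10T1/2 cells preincubated 30 min with compound (screen at 10 μM; IC50 from triplicate dilution series), then stimulated with 0.3 μg/ml recombinant SHh for 3 days at 37 °C. Alkaline phosphatase measured by CSPD luminescence in 0.2% Triton-X100 lysates; IC50 = half-maximal inhibition of SHh-induced activity.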

[7] = test system: transcription factor Gli1; experiment: Suppression of transcription factor Gli1 induction in Panc1 cell culture; type: cell-based, human; conditions: 20 mkM, 72 hours, Panc1 cells
Protocol: Examples of suppression of the transcription factor Gli1 induction in human's tumor cell culture Panc1 by compounds of the general formulas I-VIII are presented in FIG. 2. […] This effect could be enhanced at combined action of the tested compound and kinas inhibitor (oncolitic Iressa). For caning out the experiments the tumour cell culture Panc1 was cultivated for 72 hours in the presence of 20 mkM of tested compounds.
Measurements of expression level Gli1 were carried out by determination of HGli mRNA amount according to the method [Lauth M., Bergstrom A., Shimokawa T., Toftgard R. Inhibition of GLI-mediated transcription and tumor cell growth by small-molecule antagonists. PNAS. 2007, 104(20): 8455-8460].

Row | Structure (SMILES) | Cmax ([1]; IP, 5 mg/Kg) [ng/mL] | half-life ([1]; IP, 5 mg/Kg) [min] | Cmax ([1]; PO, 5 mg/Kg) [ng/mL] | half-life ([1]; PO, 5 mg/Kg) [min] | IC50 [2] [nM] | MTD at 5 days [3] [mg/kg] | Suppression of tumour growth in comparison with the control group ([4]; intraperitoneally 100 m mg/kg, daily during 21 days) [%] | bioavailability [5] [%] | IC50 [6] [nM] | half-life ([1]; PO, dose not given) [min] | Suppression of tumour growth in comparison with the control group ([4]; peroral 50 mg/kg, daily during 14 days) [%] | Suppression of Gli1 expression (HGli mRNA) [7]
1 | Cc1cccn2cc(-c3ccc(NC(=O)c4ccccc4F)cc3)nc12 [III-1011, 2-Fluoro-N-[4-(8-methylimidazo[1,2-a]pyridin-2-yl)phenyl]benzamide] | 1040 | 44 | 564 | 58 | 93 | > 200 | 46 | 64 | – | – | – | –
2 | Cc1cccn2cc(-c3ccc(NC(=O)c4ccccc4Br)cc3)nc12 [III-1029, N-[4-(8-Methylimidazo[1,2-a]pyridin-2-yl)phenyl]-2-bromobenzamide] | – | – | – | – | 259 | > 200 | – | 75 | < 500 | 59 | 67 | block effectively Hh-signalling cascade
